These results are taken from publication PMC11403612, “Preparation and Preclinical Characterization of a Simple Ester for Dual Exogenous Supply of Lactate and Beta-hydroxybutyrate” (Journal of Agricultural and Food Chemistry, 2024).

Bounds are passed on as bounds.

What is called half-life is how long it takes for the measured level to halve.

Data set [1] is described as follows: In vitro stability in simulated intestinal fluid. It is filed as in vitro ADME. To be noted: simulated intestinal fluid (SIF) with pancreatin, intestinal enzymes (pancreatin), pH = 6.8. On the procedure: The in vitro stability of LaKe was evaluated following incubation in simulated gastric fluid (SGF), simulated intestinal fluid (SIF), fresh and frozen plasma (rats and humans, respectively), and the presence of hepatocytes (rats and humans) and liver microsomes (rats and humans). At the chosen time points, the mixtures were analyzed by LC-MS/MS to quantify the remaining LaKe and all assays included at least one control compound with known pharmacokinetic properties. […]
centrifuged at 4000 rpm, 4℃ for 20 min. 60 μL of supernatant was mixed with 180 μL of purified water for subsequent LC/MS/MS analysis.
LC-MS/MS Condition: ACQUITY UPLC BEH C18 1.7um 2.1 * 50mm Column (Part No.186002350). Mobile phase: A: 0.1% Formic Acid in Water; B: 0.1% Formic Acid in ACN.
Stability of LaKe in simulated intestinal fluid (SIF)
Preparation of SIF-solution: 0.136 g KH2PO4 and 0.064 g pancreatin was dissolved H2O to a total volume of solution 20 mL. The pH of the test solution was adjusted to 6.80 ± 0.05.
Procedure: 2 μL of a 10mg/ml working solution of LaKe in DMSO was spiked into 96-deep-well plates corresponding to timepoints T0, T60, T120, T360 and T1440. Experiments were performed in duplicate. 198 μL of SIF solution was then transferred to the individual wells (except T0) to reach 0.1mg/ml as the final test concentration for each time point (60, 120, 360, 1440 minutes). […]

Data set [2] is described as follows: Extended pharmacokinetics of LaKe in rats (LaKe, lactate, BHB plasma levels). The class given is in vivo, SD rats. On the procedure:
(§1) Animals (SD rats, both male and female, 7–9 weeks) were individually housed from 24 h before dosing until the end of the study. Food was withdrawn the night before initiation of study; following food withdrawal, animals were maintained on glucose water containing 5% w/v glucose and 1% saline to suppress endogenous ketone production throughout the study. Food was returned 8 h post-test article dosing. Animals were monitored for distress or notable changes in behavior during the study. The animals were euthanized by CO2 inhalation 2 h after the last sample collection time point.
(§2) Blood collection was performed by jugular vein cannulation of each animal and divided into two parts. About 10–15 μL of blood was used for the analysis of glucose by glucometer measurement. About 0.20 mL of blood was collected into prechilled commercial EDTA-K2 tubes containing 5 μL of the esterase inhibitor (100 mM PMSF in ethanol, 40 mg/mL NaF and 120 mg/mL […] in water = 5:95(v/v). All blood samples were placed on wet ice until centrifugation.
At least 100 μL plasma was collected respectively and transferred into polypropylene tubes with 400 mM TTFA (2-thenoyltrifluoroacetone) in ethanol (plasma:stabilizer = 100:5 (v:v)). The final concentration of TTFA in the plasma sample from each time point was approximately 20 mM. The samples were snap frozen over dry ice and kept at −60 °C or lower until LC-MS/MS analysis for 3-hydroxybutyl 2-hydroxypropanoate (LaKe), lactate, and β-hydroxybutyrate (BHB).
Calibration curves were constructed by linear regression of the peak area of the pure calibrant samples versus the nominal analyte concentrations and based on eight points. The Lac-Phe concentrations in rat plasma samples were derived from their peak area with reference to the calibration curve.
Extended pharmacokinetics of LaKe in rats – Detailed protocols for LC-MS/MS analyses 3-hydroxybutyl 2-hydroxypropanoate (LaKe): […]
3-hydroxybutyl 2-hydroxypropanoate (LaKe) was detected by SRM. […]

Another data set has as its system blood glucose. The data set is described as follows: Blood glucose in extended pharmacokinetics study. The class given is in vivo, SD rats. To be noted: high-dose LaKe exposure; continuous ingestion of 5% glucose water. Here is the method: as §1, §2

In data set [1], `CC(O)CCOC(=O)C(C)O` (centres unmarked) [LaKe, 3-hydroxybutyl 2-hydroxypropanoate] gave a half-life at 0.1 mg/ml of less than 2 h. This compound gave a concentration at 15 min in data set [2] (both sexes, SD, rat, plasma, oral, 1.3 g/kg, the lower dose, 15 min) of 540 nM. In addition, in data set [2] (both sexes, SD, rat, plasma, oral, 1.3 g/kg, the lower dose, 30 min), the concentration at 30 min was 260 nM. Further, in data set [2] (maximum dose of 12 g/kg), the “maximum average plasma level of LaKe” value turned out to be 5 µM. Besides, the blood glucose entry with blood glucose was “nonsignificant trend toward lower glucose levels”.
